Source: patent US20240050400A1, “Use of the Sesquiterpene Lactone Tomentosin in the Treatment of Tumors Caused by Lymphoid Cell Lines” (Universita Degli Studi Di Sassari, priority 2021, published 2024)

Legend:
[1] = test system: Raji (of Burkitt lymphoma) cells; test: Cell proliferation (CellTiter-Glo) and cytotoxicity (CellTox Green) test, Raji; assay type: cell-based; settings: for effect on cells (cell proliferation / cell death): 48 hours of treatment
Procedure: (§1) The molecules were tested at 7 different concentrations: 50 μM, 25 μM, 12.5 μM, 6.25 μM, 3.125 μM, 1.56 μM, 0.75 μM, in culture with lymphoid tumor (myeloma, lymphoma) cell lines.
(§2) Tested cell lines: • MM.1S (of multiple myeloma), cultivated in RPMI-1640 medium, 10% FBS, L-Glutamine, AA • RPMI-8226 (of multiple myeloma), cultivated in RPMI-1640 medium, 10% FBS, L-Glutamine, AA; • Raji (of Burkitt lymphoma), cultivated in RPMI-1640 medium, 10% FBS, L-Glutamine, AA; • MRC5 (of pulmonary fibroblasts), cultivated in DMEM medium, 10% FBS, L-Glutamine, AA, Pyruvate Sodium, NEAA.
(§3) After 48 hours of treatment, drug-induced cellular death was estimated by measuring the intensity of the fluorescence signal after staining the dead cells using a known method (CellTox Green Dye—Promega).
(§4) Soon afterwards, the number of live cells was evaluated by adding CellTiter Glo P (Promega) reagent, through which the cell lysis and the luminescence signal are directly proportional to the ATP levels in each sample.
(§5) 24 hours prior to the addition of the compound under examination, the cells resuspended at adequate concentrations were seeded in 384-well flat clear bottom black polystyrene TC-treated microplates (Corning 3764).
(§6) Each well contained 20 μL of cell suspension. The day after, […] of the molecules under examination, with integrated CellTox (Promega G8731) green dye, were added to each sample to obtain the desired treatment concentrations.
(§7) The seeding of the cells, the preparation of the serial dilutions, and the addition of the molecules to the cells were performed using an automated liquid pipetting platform (Gilson Pipetmax).
(§8) 48 hours after the treatment, the intensity of the global green fluorescence in each well was quantified using Biotek Cytation 5. For each sample, four images were taken to cover the whole area of the well. Image merging, processing and background removal were performed using the Gen5 software. Immediately after the fluorescence reading, 30 μL of CellTiter Glo reagent (Promega G7571) just prepared were added to each well, and each sample was mixed 5 times. Ten minutes later, a luminescence reading was taken. Three technical replicates for each condition under examination were plated.
(§9) CellTiter-Glo is a reagent used for determining the number of viable cells in a culture based on the quantification of ATP, which signals the presence of metabolically active cells.
(§10) The reagent is added directly to the samples, resulting in cell lysis and generation of a luminescent signal that is proportional to the quantity of ATP. The luminescence signal is quantified using Promega Glo-Max Discover.
(§11) The CellTox green dye measures the changes that have occurred in the integrity of the membrane following cell death. The test uses a dye which is excluded from viable cells while coloring the DNA of dead cells. When the dye binds to the DNA of the compromised cells, the fluorescent properties of the dye are enhanced, whereas viable cells produce no perceptible increase in fluorescence. Therefore, the fluorescent signal produced by the dye is proportional to cytotoxicity. Fluorescence intensity (GFI) is quantified by means of a Biotek Cytation 5 wide-field automated digital microscope, led cube 465 nm, filter cube excitation 469±25 nm, emission 525±25 nm.
(§12) Cell viability is calculated as relative cell count (R): […]
(§13) where T is the number of cells in the treated sample and U is the number of cells in the untreated sample. […]

[2] = test system: aggressive human melanoma cell lines; settings: cited from earlier work
[3] = test system: MRC5 (of pulmonary fibroblasts) non-tumor cells; test: Cell proliferation (CellTiter-Glo) and cytotoxicity (CellTox Green) test, MRC5 non-tumor control; assay type: cell-based; settings: for IC50 relative to the maximum concentration tested: highest tested concentration 50 μM
Procedure: The MRC5 cell line was used as a control to evaluate if these molecules were toxic also towards non-tumor cells.
Soon afterwards, the number of live cells was evaluated by adding CellTiter Glo P (Promega) reagent, through which the cell lysis and the luminescence signal are directly proportional to the ATP levels in each sample. […]

[4] = test system: RPMI-8226 (of multiple myeloma) cells; test: Cell proliferation (CellTiter-Glo) and cytotoxicity (CellTox Green) test, RPMI-8226; assay type: cell-based; settings: RPMI-8226 cells; for effect on cells (cell proliferation / cell death): 0.75-50 μM, 48 hours of treatment
Procedure: The molecules were tested at 7 different concentrations: 50 μ[…], in culture with lymphoid tumor (myeloma, lymphoma) cell lines. Tested cell lines: • MM.1S (of multiple myeloma), cultivated in RPMI-1640 medium, 10% FBS, L-Glutamine, AA • RPMI-8226 (of multiple myeloma), cultivated in RPMI-1640 medium, 10% FBS, L-Glutamine, AA; • Raji (of Burkitt lymphoma), cultivated in RPMI-1640 medium, 10% FBS, L-Glutamine, AA; • MRC5 (of pulmonary fibroblasts), cultivated in DMEM medium, 10% FBS, L-Glutamine, AA, Pyruvate Sodium, NEAA. […] After 48 hours of treatment, drug-induced cellular death was estimated by measuring the intensity of the fluorescence signal after staining the dead cells using a known method (CellTox Green Dye-Promega). Soon afterwards, the number of live cells was evaluated by adding CellTiter Glo P (Promega) reagent, through which the cell lysis and the luminescence signal are directly proportional to the ATP levels in each sample. 24 hours prior to the addition of the compound under examination, the cells resuspended at adequate concentrations were seeded in 384-well flat clear bottom black polystyrene TC-treated microplates (Corning 3764). Each well contained 20 μL of cell suspension. […] The seeding of the cells, the preparation of the serial dilutions, and the addition of the molecules to the cells were performed using an automated liquid pipetting platform (Gilson […]). 48 hours after the treatment, the intensity of the global green fluorescence in each well was quantified using Biotek Cytation 5. […] Immediately after the fluorescence reading, 30 μL of CellTiter Glo reagent (Promega G7571) just prepared were added to each well, and each sample was mixed 5 times. Ten minutes later, a luminescence reading was taken. […] CellTiter-Glo is a reagent used for determining the number of viable cells in a culture based on the quantification of ATP, which signals the presence of metabolically active cells. The reagent is added directly to the samples, resulting in cell lysis and generation of a luminescent signal that is proportional to the quantity of ATP. The luminescence signal is quantified using Promega Glo-Max Discover. […] When the dye binds to the DNA of the compromised cells, the fluorescent properties of the dye are enhanced, whereas viable cells produce no perceptible increase in fluorescence. […] Fluorescence intensity (GFI) is quantified by means of a Biotek Cytation 5 wide-field automated digital microscope, led cube 465 nm, filter cube excitation 469±25 nm, emission 525±25 nm. Cell viability is calculated as relative cell count (R): R=T/U×100 where T is the number of cells in the treated sample and U is the number of cells in the untreated sample. […] Cell death is measured as green fluorescence intensity (GFI).

[5] = test system: MM.1S (of multiple myeloma) cells; test: Cell proliferation (CellTiter-Glo) and cytotoxicity (CellTox Green) test, MM.1S; assay type: cell-based; settings: MM.1S cells; for effect on cells (cell proliferation / cell death): 48 hours of treatment
Procedure: as §1, §2, §3, §4, §5, §6, §7, §8, §9, §10, §11, §12, §13

[6] = test system: MOLT-4 cell line of human leukemia; settings: through inhibition of the mTOR/PI3K/Akt signalling pathway; cited from earlier work
[7] = highest tested concentration 50 μM

Structure (SMILES)	anti-proliferative activity ([1]; 0.75-50 μM)	IC50 relative to the maximum concentration tested [1, 7]	pro-apoptotic effect [2]	IC50 relative to the maximum concentration tested [3]	effect on cells (cell proliferation / cell death) [4]	anti-proliferative activity ([5]; 0.75-50 μM)	IC50 relative to the maximum concentration tested [5, 7]	effect on cells (cell proliferation / cell death) ([1]; 0.75-50 μM)	anti-proliferative activity ([3]; 0.75-50 μM)	effect on cell proliferation and apoptosis [6]	effect on cells (cell proliferation / cell death) ([5]; 0.75-50 μM)	IC50 ([1]; after 72 hours of culture)	IC50 ([4]; after 72 hours of culture)	IC50 ([5]; after 72 hours of culture)
C=C1C(=O)O[C@H]2CC(=C)[C@H]3CC[C@@](C)(O)[C@@H]3C[C@H]12 [Inuvisculide]	low anti-proliferative activity	> the maximum concentration	strong pro-apoptotic effect	> the maximum concentration	cytostatic effect	low anti-proliferative activity	> the maximum concentration	–	–	–	–	–	–	–
C=C1C(=O)O[C@@H]2C[C@H](C)C(CCC(C)=O)=CC[C@H]12 [Tomentosin]	–	–	strong pro-apoptotic effect	> the maximum concentration	cytostatic effect	–	–	cytotoxic effect	low anti-proliferative activity	inhibits cell proliferation and induces apoptosis	cytotoxic effect	–	–	–
N.N.[Cl][Pt][Cl] [cysplatin, Cisplatin]	–	–	–	–	reduced cell proliferation and increased cell death	–	–	reduced cell proliferation and increased cell death	–	–	reduced cell proliferation and increased cell death	25.7 µM	14.9 µM	12.3 µM
